Reference: ChEMBL document CHEMBL3797052 (Eur J Med Chem, 2016)

What was measured:
[1] = Antiproliferative activity against human COLO205 cells assessed as growth inhibition after 48 hrs by sulforhodamine B assay; format: functional; conditions: COLO 205, 48 h; for CC50: read-out: LC50 (the source's name)
[2] = Antiproliferative activity against human LOXIMVI cells assessed as cell growth at 10^-6 M after 48 hrs by sulforhodamine B assay; format: functional; conditions: LOX IMVI, read-out: Activity
[3] = tested on: U-251; experiment: Antiproliferative activity against human U251 cells assessed as cell growth at 10^-6 M after 48 hrs by sulforhodamine B assay; format: functional; conditions: U-251, 48 h, read-out: Activity
[4] = Antiproliferative activity against human DU145 cells assessed as cell growth at 10^-6 M after 48 hrs by sulforhodamine B assay; format: functional; conditions: DU-145, 48 h, read-out: Activity
[5] = tested on: NCI-H322M; experiment: Antiproliferative activity against human NCI-H322M cells assessed as cell growth at 10^-7 M after 48 hrs by sulforhodamine B assay; format: functional; conditions: read-out: Activity
[6] = Antiproliferative activity against human PC3 cells assessed as cell growth at 10^-6 M after 48 hrs by sulforhodamine B assay; format: functional; conditions: PC-3, 48 h, read-out: Activity
[7] = Antiproliferative activity against human HCT15 cells assessed as cell growth at 10^-4 M after 48 hrs by sulforhodamine B assay; format: functional; conditions: HCT-15, 48 h, read-out: Activity
[8] = Antiproliferative activity against human OVCAR5 cells assessed as growth inhibition after 48 hrs by sulforhodamine B assay; format: functional; conditions: OVCAR-5, 48 h; for CC50: read-out: LC50 (the source's name)
[9] = tested on: T47D; experiment: Antiproliferative activity against human T47D cells assessed as cell growth at 10^-4 M after 48 hrs by sulforhodamine B assay; format: functional; conditions: read-out: Activity
[10] = Antiproliferative activity against human RXF393 cells assessed as cell growth at 10^-8 M after 48 hrs by sulforhodamine B assay; format: functional; conditions: RXF 393, 48 h, read-out: Activity
[11] = tested on: HT-29; experiment: Antiproliferative activity against human HT-29 cells assessed as cell growth at 10^-4 M after 48 hrs by sulforhodamine B assay; format: functional; conditions: HT-29, 48 h, read-out: Activity
[12] = Antiproliferative activity against human SF295 cells assessed as cell growth at 10^-7 M after 48 hrs by sulforhodamine B assay; format: functional; conditions: SF-295, 48 h, read-out: Activity
[13] = tested on: Serine/threonine-protein kinase B-raf (Homo sapiens), P15056 [V600E]; experiment: Inhibition of BRAF V600E mutant (unknown origin) at 10 uM measured after 40 mins by scintillation counting
[14] = Antiproliferative activity against human UACC62 cells assessed as cell growth at 10^-7 M after 48 hrs by sulforhodamine B assay; format: functional; conditions: UACC-62, 48 h, read-out: Activity
[15] = tested on: MDA-MB-231; experiment: Antiproliferative activity against human MDA-MB-231 cells assessed as cell growth at 10^-8 M after 48 hrs by sulforhodamine B assay; format: functional; conditions: MDA-MB-231, 48 h, read-out: Activity
[16] = tested on: EKVX; experiment: Antiproliferative activity against human EKVX cells assessed as cell growth at 10^-6 M after 48 hrs by sulforhodamine B assay; format: functional; conditions: read-out: Activity
[17] = Antiproliferative activity against human HCT15 cells assessed as growth inhibition after 48 hrs by sulforhodamine B assay; format: functional; conditions: HCT-15, 48 h
[18] = Antiproliferative activity against human Caki1 cells assessed as cell growth at 10^-6 M after 48 hrs by sulforhodamine B assay; format: functional; conditions: CAKI-1, 48 h, read-out: Activity
[19] = Antiproliferative activity against human COLO205 cells assessed as cell growth at 10^-8 M after 48 hrs by sulforhodamine B assay; format: functional; conditions: COLO 205, 48 h, read-out: Activity
[20] = tested on: EKVX; experiment: Antiproliferative activity against human EKVX cells assessed as cell growth at 10^-7 M after 48 hrs by sulforhodamine B assay; format: functional; conditions: read-out: Activity
[21] = tested on: MDA-MB-231; experiment: Antiproliferative activity against human MDA-MB-231 cells assessed as growth inhibition after 48 hrs by sulforhodamine B assay; format: functional; conditions: MDA-MB-231, 48 h; for CC50: read-out: LC50 (the source's name)
[22] = Antiproliferative activity against human OVCAR3 cells assessed as cell growth at 10^-8 M after 48 hrs by sulforhodamine B assay; format: functional; conditions: OVCAR-3, 48 h, read-out: Activity
[23] = Antiproliferative activity against human UACC257 cells assessed as cell growth at 10^-6 M after 48 hrs by sulforhodamine B assay; format: functional; conditions: UACC-257, 48 h, read-out: Activity
[24] = tested on: NCI-H226; experiment: Antiproliferative activity against human NCI-H226 cells assessed as cell growth at 10^-7 M after 48 hrs by sulforhodamine B assay; format: functional; conditions: NCI-H226, 48 h, read-out: Activity
[25] = tested on: MDA-MB-468; experiment: Antiproliferative activity against human MDA-MB-468 cells assessed as cell growth at 10^-4 M after 48 hrs by sulforhodamine B assay; format: functional; conditions: MDA-MB-468, 48 h, read-out: Activity
[26] = Antiproliferative activity against human HL-60(TB) cells assessed as growth inhibition after 48 hrs by sulforhodamine B assay; format: functional; conditions: HL-60, 48 h; for CC50: read-out: LC50 (the source's name)
[27] = tested on: NCI-H23; experiment: Antiproliferative activity against human NCI-H23 cells assessed as cell growth at 10^-7 M after 48 hrs by sulforhodamine B assay; format: functional; conditions: NCI-H23, 48 h, read-out: Activity
[28] = tested on: SN12C; experiment: Antiproliferative activity against human SN12C cells assessed as cell growth at 10^-4 M after 48 hrs by sulforhodamine B assay; format: functional; conditions: read-out: Activity
[29] = tested on: CCRF-CEM; experiment: Antiproliferative activity against human CCRF-CEM cells assessed as cell growth at 10^-8 M after 48 hrs by sulforhodamine B assay; format: functional; conditions: read-out: Activity
[30] = biological target: Voltage-gated inwardly rectifying potassium channel KCNH2 (Homo sapiens, UniProt Q12809); experiment: Inhibition of human ERG assessed as reduction in channel current by automated patch-clamp electrophysiology assay
[31] = tested on: KM12; experiment: Antiproliferative activity against human KM12 cells assessed as cell growth at 10^-4 M after 48 hrs by sulforhodamine B assay; format: functional; conditions: KM12, 48 h, read-out: Activity
[32] = Antiproliferative activity against human SKOV3 cells assessed as cell growth at 10^-8 M after 48 hrs by sulforhodamine B assay; format: functional; conditions: SK-OV-3, 48 h, read-out: Activity
[33] = Antiproliferative activity against human TK10 cells assessed as cell growth at 10^-8 M after 48 hrs by sulforhodamine B assay; format: functional; conditions: TK-10, 48 h, read-out: Activity
[34] = Antiproliferative activity against human HOP92 cells assessed as cell growth at 10^-8 M after 48 hrs by sulforhodamine B assay; format: functional; conditions: HOP-92, 48 h, read-out: Activity
[35] = tested on: KM12; experiment: Antiproliferative activity against human KM12 cells assessed as cell growth at 10^-6 M after 48 hrs by sulforhodamine B assay; format: functional; conditions: KM12, 48 h, read-out: Activity
[36] = Antiproliferative activity against human MOLT4 cells assessed as cell growth at 10^-6 M after 48 hrs by sulforhodamine B assay; format: functional; conditions: MOLT-4, 48 h, read-out: Activity

Voltage-gated inwardly rectifying potassium channel KCNH2, sequence (Q12809 whole entry): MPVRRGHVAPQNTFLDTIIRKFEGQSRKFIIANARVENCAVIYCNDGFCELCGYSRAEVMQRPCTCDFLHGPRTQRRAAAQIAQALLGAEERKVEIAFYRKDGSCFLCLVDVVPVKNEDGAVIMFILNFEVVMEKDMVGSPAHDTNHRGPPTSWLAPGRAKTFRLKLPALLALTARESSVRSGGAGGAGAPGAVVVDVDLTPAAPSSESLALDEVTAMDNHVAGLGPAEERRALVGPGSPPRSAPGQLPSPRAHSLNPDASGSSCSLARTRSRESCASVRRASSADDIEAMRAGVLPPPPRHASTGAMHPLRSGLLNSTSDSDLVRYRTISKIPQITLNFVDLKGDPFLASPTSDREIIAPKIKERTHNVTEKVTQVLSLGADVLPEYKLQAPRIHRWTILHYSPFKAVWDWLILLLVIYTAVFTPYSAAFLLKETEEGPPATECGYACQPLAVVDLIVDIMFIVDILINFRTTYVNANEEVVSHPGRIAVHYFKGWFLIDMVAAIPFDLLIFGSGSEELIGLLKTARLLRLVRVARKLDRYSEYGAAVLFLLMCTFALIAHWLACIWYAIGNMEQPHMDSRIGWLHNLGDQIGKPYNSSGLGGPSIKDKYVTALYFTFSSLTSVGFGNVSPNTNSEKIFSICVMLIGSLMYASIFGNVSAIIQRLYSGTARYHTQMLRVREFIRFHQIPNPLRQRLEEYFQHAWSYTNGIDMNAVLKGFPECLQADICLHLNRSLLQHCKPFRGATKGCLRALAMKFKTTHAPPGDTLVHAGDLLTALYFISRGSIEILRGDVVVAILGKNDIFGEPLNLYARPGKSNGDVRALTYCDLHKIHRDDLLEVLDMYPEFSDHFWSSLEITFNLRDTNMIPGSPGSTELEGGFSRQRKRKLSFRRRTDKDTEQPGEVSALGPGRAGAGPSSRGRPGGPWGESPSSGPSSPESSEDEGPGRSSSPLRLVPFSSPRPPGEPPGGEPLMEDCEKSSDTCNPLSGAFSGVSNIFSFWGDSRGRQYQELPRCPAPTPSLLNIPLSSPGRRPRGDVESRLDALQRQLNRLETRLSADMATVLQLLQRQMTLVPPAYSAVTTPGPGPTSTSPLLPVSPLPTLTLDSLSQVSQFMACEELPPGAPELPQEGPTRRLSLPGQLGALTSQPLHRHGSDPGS
Serine/threonine-protein kinase B-raf (Homo sapiens), P15056 [V600E], sequence (P15056 whole entry V600E): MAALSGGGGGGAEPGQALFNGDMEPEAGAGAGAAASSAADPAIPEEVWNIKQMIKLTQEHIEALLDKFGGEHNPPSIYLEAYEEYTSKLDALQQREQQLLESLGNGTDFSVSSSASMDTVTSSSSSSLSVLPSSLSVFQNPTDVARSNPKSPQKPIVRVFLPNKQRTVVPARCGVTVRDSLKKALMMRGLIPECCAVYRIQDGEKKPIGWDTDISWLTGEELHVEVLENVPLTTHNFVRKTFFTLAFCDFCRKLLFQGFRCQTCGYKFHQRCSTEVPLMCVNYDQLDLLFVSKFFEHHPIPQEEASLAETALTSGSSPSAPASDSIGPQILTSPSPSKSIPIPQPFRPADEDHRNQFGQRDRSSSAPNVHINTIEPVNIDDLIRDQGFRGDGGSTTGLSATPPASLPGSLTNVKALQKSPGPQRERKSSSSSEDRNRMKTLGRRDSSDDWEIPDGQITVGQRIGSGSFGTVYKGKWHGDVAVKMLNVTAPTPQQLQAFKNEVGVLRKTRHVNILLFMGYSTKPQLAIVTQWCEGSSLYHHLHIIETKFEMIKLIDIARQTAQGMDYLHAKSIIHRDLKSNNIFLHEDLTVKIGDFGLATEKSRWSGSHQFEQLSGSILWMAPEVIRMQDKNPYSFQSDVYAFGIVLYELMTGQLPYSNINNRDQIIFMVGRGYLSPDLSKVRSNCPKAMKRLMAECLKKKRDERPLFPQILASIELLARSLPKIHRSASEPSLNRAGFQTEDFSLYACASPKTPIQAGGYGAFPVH

With `CNC(=O)c1cc(Oc2ccc3nc(NC(=O)Nc4cc(C(F)(F)F)cc(C(F)(F)F)c4)sc3c2)ccn1` the GI50 [1] was 0.822 µM, the TGI [1] was 2.32 µM and the CC50 [1] was 5.82 µM. For the same compound, the growth at 1 µM [2] was 63%, the growth at 1 µM [3] was 51% and the growth at 1 µM [4] was 63%. It also gave a growth at 0.1 µM [5] of 102%, a growth at 1 µM [6] of 37% and a growth at 100 µM [7] of -67%. It also gave a GI50 [8] of 1.55 µM, a TGI [8] of 3.52 µM and a CC50 [8] of 7.97 µM. It also gave a growth at 100 µM [9] of -60%, a growth at 0.01 µM [10] of 89% and a growth at 100 µM [11] of -82%. The growth at 0.1 µM [12] was 92%, the inhibition [13] was 49.9% and the growth at 0.1 µM [14] was 93%. It also gave a growth at 0.01 µM [15] of 103%, a growth at 1 µM [16] of 60% and a GI50 [17] of 1.5 µM. The LC50 [17] was 7.32 µM, the TGI [17] was 3.31 µM and the growth at 1 µM [18] was 58%. The growth at 0.01 µM [19] was 90%, the growth at 0.1 µM [20] was 92% and the GI50 [21] was 0.829 µM. The TGI [21] was 2.62 µM, the CC50 [21] was 7.5 µM and the growth at 0.01 µM [22] was 101%. For the same compound, the growth at 1 µM [23] was 59%, the growth at 0.1 µM [24] was 87% and the growth at 100 µM [25] was -75%. For the same compound, the GI50 [26] was 1.6 µM, the TGI [26] was 4.17 µM and the CC50 [26] was 20.4 µM. For the same compound, the growth at 0.1 µM [27] was 95%, the growth at 100 µM [28] was -60% and the growth at 0.01 µM [29] was 111%. The IC50 [30] was over 100 µM, the growth at 100 µM [31] was -61% and the growth at 0.01 µM [32] was 87%. For the same compound, the growth at 0.01 µM [33] was 95%, the growth at 0.01 µM [34] was 102% and the growth at 1 µM [35] was 25%.

`CNC(=O)c1cc(Oc2ccc3nc(NC(=O)c4cc(C(F)(F)F)cc(C(F)(F)F)c4)sc3c2)ccn1` showed a GI50 [1] of 2.82 µM, a TGI [1] of 8.21 µM and a CC50 [1] of 32.8 µM. For the same compound, the growth at 1 µM [2] was 94%, the growth at 1 µM [36] was 85% and the growth at 1 µM [3] was 99%. For the same compound, the growth at 1 µM [4] was 94%, the growth at 0.1 µM [5] was 93% and the growth at 1 µM [6] was 80%. It also gave a growth at 100 µM [7] of -29%, a GI50 [8] of 4.23 µM and a TGI [8] of 25 µM. For the same compound, the CC50 [8] was over 100 µM, the growth at 100 µM [9] was -40% and the growth at 0.01 µM [10] was 95%. It also gave a growth at 100 µM [11] of -51%, a growth at 0.1 µM [12] of 89% and a growth at 0.1 µM [14] of 86%. It also gave a growth at 0.01 µM [15] of 108%, a growth at 1 µM [16] of 90% and a GI50 [17] of 3.97 µM. For the same compound, the LC50 [17] was over 100 µM, the TGI [17] was 25.1 µM and the growth at 1 µM [18] was 88%. The growth at 0.01 µM [19] was 99%, the growth at 0.1 µM [20] was 91% and the GI50 [21] was 2.88 µM. For the same compound, the TGI [21] was 6.63 µM, the CC50 [21] was 39.8 µM and the growth at 0.01 µM [22] was 104%. The growth at 1 µM [23] was 101%, the growth at 0.1 µM [24] was 99% and the growth at 100 µM [25] was -30%. The GI50 [26] was 2.49 µM, the TGI [26] was 5.11 µM and the CC50 [26] was over 100 µM. It also gave a growth at 0.1 µM [27] of 95%, a growth at 100 µM [28] of -53% and a growth at 0.01 µM [29] of 99%. The IC50 [30] was 48.4 µM, the growth at 100 µM [31] was -52% and the growth at 0.01 µM [32] was 100%. It also gave a growth at 0.01 µM [33] of 95%, a growth at 0.01 µM [34] of 91% and a growth at 1 µM [35] of 86%.
